Measured values as given in patent US20080085528A1, “G[…] ASSAYS FOR MEASURING KINETIC AND […]” (Bristol-Myers Squibb Company, priority 2006, published 2008).

Assays:
Assay type in all cases: biochemical
human full-length GK = molecular target: T1, human full-length GK (Homo sapiens, UniProt P35557); assay: tandem assay with EDTA quench; settings: 12 mM glucose
T1 construct: human full-length GK (15 nM) was incubated with various concentrations of glucose
T1 sequence (P35557 1-466 isoform P35557-2): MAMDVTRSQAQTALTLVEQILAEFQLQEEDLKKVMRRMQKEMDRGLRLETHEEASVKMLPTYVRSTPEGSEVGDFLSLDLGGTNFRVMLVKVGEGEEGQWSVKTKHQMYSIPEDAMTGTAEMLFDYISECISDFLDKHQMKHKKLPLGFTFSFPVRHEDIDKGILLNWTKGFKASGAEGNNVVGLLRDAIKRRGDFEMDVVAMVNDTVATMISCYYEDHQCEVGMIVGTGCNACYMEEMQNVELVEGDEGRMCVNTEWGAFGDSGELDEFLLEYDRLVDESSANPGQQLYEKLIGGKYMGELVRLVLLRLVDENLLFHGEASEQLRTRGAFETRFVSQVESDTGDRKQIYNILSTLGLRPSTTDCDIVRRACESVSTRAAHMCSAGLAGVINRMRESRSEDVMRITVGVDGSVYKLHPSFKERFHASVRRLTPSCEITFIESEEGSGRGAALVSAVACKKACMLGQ
Description: The protocol used is essentially as described above with some variation. Briefly, human full-length GK (15 nM) was incubated with various concentrations of glucose in the range from 0.33 to 50 mM in clear bottom 384 well microtiter plates. To initiate the GK reaction, Mg-ATP (3 mM final concentration) was added to the protein in buffer, under the final buffer conditions of 25 mM HEPES, pH 7.1, containing 1 mM DTT and 5% DMSO. The total reaction volume was 20 μl. The reaction was allowed to proceed for ten minutes and was then quenched with 5 μl EDTA (45 mM final).
The components of the secondary reaction, ThioNAD and G6PDH (final concentrations of 650 μM and 3.33 Units, respectively), were then added together in a volume of 25 μl, and a total volume of 50 μl. Absorbance was read and activation calculated as a percentage of background activity, i.e., GK in the presence of DMSO, with background G6P subtracted. Background G6P was determined by pre-quenching GK with EDTA prior to reaction initiation with ATP.
The tandem assay (EDTA quench) was used to assess the activity of GK in the presence of putative GK activator compounds. The above-described tandem assay protocol was followed using a range of activator compound concentrations from 0 to 100 μM.

human hepatic GK [1] = molecular target: T2, human hepatic GK (Homo sapiens, UniProt P35557); assay: tandem assay (uncoupled G-6-P detection, heat stop)
T2 sequence (P35557 1-466 isoform P35557-2): T1 sequence (P35557 1-466 isoform P35557-2)
Description: Purified human recombinant GK was used to measure the activation of GK activity by glucose and a GK activator (Compound “C”) in the tandem assay. A suitable vehicle (for instance 24% DMSO in pH 7.25 Tris buffer), with or without (control) a GK modulator of interest was incubated with GK (50 μl of a 24 nM stock solution) over a range of concentrations of glucose (for instance from 0.32 to 80 mM) for 30 minutes in a 96-well PCR plate (10 μl). The GK reaction was initiated by addition of Mg-ATP (20 μl). The solution used comprised 12 mM ATP and 16 mM MgCl2. The final assay conditions were 25 mM Tris, pH 7.25, 1 mM DTT and 3% DMSO, 15 nM GK, 3 mM ATP and 4 mM MgCl2. Glucose stock solution (IM) was diluted to generate a dilution series with final glucose concentrations of: 0.2, 0.4, 0.6, 0.8, 1, 1.5, 2, 3, 4, 5, 6, 8, 10, 12, 20 and 50 mM. The total reaction volume per well was about 80 μl.
The GK reaction proceeded for about 10 minutes, and was followed by heating the 96-well plate in a hot water bath (100° C.) for 30 seconds to stop the reaction. […] An aliquot of reaction mixture (typically 50 μl) was then transferred to a second 96 well plate suitable for taking absorbance measurements. […] The reagents and reaction mixture are mixed for 2 minutes, followed by measurement of the absorbance at 405 nm using a plate reader. […]

human hepatic GK [2] = molecular target: T2, human hepatic GK; assay: filtration-based assay (direct G-6-P capture by ion-exchange resin); settings: 12 mM glucose, FIG. 7
Description: Human full-length recombinant GK was used to measure the activation of GK. Human full-length GK (15 nM) was incubated with various concentrations of glucose in the range from 0.33 to 50 mM in the presence of tritiated glucose (3H-glucose [6-^3H], 0.33 μCi) in 96 well microtiter plates. To initiate the GK reaction, Mg-ATP (3 mM final) was added to the protein in buffer, under the final buffer conditions of 25 mM HEPES, pH 7.1, containing 1 mM DTT and 5% DMSO. The total reaction volume was 110 μl. The reaction was allowed to proceed for ten minutes (i.e., the linear portion of the reaction) and was then quenched with 100 mM formic acid (1:1). A 200 μl aliquot of the quenched reaction products was then transferred to wells in a 96-well MultiScreen-GV 96 filtration plate containing 100 μl/well of Bio-rad AG 1-X8 Resin, formate form. The resin was then washed with H2O (1 ml/well), and the GK reaction product (G-6-P) eluted with 1M ammonium formate, pH 5 (200 μl/well). A 50 μl aliquot of this eluate was added to an Optiplate white 96 well plate containing 200 μl of Microscint PS. The plate was sealed and shaken for 5 minutes, and read on a Topcount scintillation counter (Perkin Elmer). The raw counts were converted to product concentration by comparison of the raw counts in the sample wells to wells containing a standard curve having known concentrations of ^3H-glucose-6-phosphate. […]

Q: With CCOP(=O)(Cc1cnc(NC(=O)[C@H](CC2CCCC2)c2ccc(S(C)(=O)=O)cc2)cn1)OCC [Compound A, (R)-diethyl (5-(3-cyclopentyl-2-(4-(methylsulfonyl)phenyl)propanamido)pyrazin-2-yl)methylphosphonate] as the compound, how does the AC50 (human full-length GK; FIG. 10) read?
A: ~904 nM

Q: And the Emax (human full-length GK; FIG. 10, read-out: maximal activation of background GK activity)?
A: 208%

Q: And the “Kcat in the presence of GK activator” value (human hepatic GK [1]; 20 uM activator, control 3% DMSO)?
A: 44 S^−1

Q: And the “KM compared to the controls” value (human hepatic GK [1]; in the presence of the activator, FIG. 8)?
A: substantially lower

Q: What about the AC50 (human hepatic GK [2]) of the same compound?
A: 7.1 µM

Q: What about the Emax (human hepatic GK [2]; read-out: maximal activation number (above background)) of the same compound?
A: 228%
